Results on 1 molecule are retold here after paper PMC5876388 (Scientific Reports, 2018).

A word on the IC50: it is the midpoint of a concentration-inhibition curve.

Series [1] has as its system Notch signaling (LS174T Notch cells). The series can be described thus: Notch signaling transcriptional activity assay (luciferase reporter, T-REx system). The settings on record: Homo sapiens, LS174T, 12 h, read-out: IC50 of Notch signal inhibitory activity (luciferase). In kind it is cell-based. The text has this:
We constructed a cell-based reporter assay with the T-Rex system to evaluate Notch signaling inhibitory activity. Without doxycycline (Dox), the tetracycline repressor (TetR) inhibits the expression of N-terminally FLAG-tagged mouse Notch1(1704–2531), which is 40 aa longer than NICD at the N-terminus. In the presence of Dox, Dox binds to the TetR to release the inhibition of expression of Notch1(1704–2531). Cleavage of Notch1(1704–2531) by γ-secretase generates NICD, which then translocates to the nucleus and forms a heterotrimer with RBP-J driving luciferase transcription (Fig. 2). This assay cells (LS174T Notch cells) was stably incorporated with pGL4.20 luciferase plasmid which has 12 × RBP-J binding site (12 copies of […])-β-globin promoter. Cell viability was measured using a fluorometric microculture cytotoxicity assay. […] The composition of the G. speciosa MeOH extract was partitioned successively with hexane, EtOAc, nBuOH, and water.
Figure 2 The T-REx assay system. Without Dox, expression of Notch1(1704–2531) is suppressed by TetR. The addition of Dox inactivates TetR to initiate expression of Notch1(1704–2531), which is then cleaved by endogenous γ-secretase to form NICD. NICD then translocates to the nucleus and forms a heterotrimer with RBP-J and MAML that binds to a 12× RBP-J binding site to drive luciferase expression. Luciferase activity was detected as Notch signaling pathway activity. Dox: doxycycline, TetR: tetracycline repressor, Luc.: luciferase.
Assay cells (LS174T Notch cells: 2 × 10^4 cells/well) were incubated in a 96-well white plate at 37 °C for 12 h. After incubation, 50 ng/mL Dox was added to each well to induce expression of exogenous Notch1(1704–2531) protein. After incubation at 37 °C for 12 h, the medium was changed to Dox-free medium containing individual samples. Luciferase activity was measured after treatment at 37 °C for 12 h. Cell viability was evaluated by the FMCA method at the same time. These assays were performed in 0.1% DMSO (n = 3). Error bars represent SD.
In a 96-well white plate, Cells (LS174T Notch cells; 2 × 10^4 cells per well) were cultured at 37 °C for 12 h. To express Notch1(1704–2531) protein in the cells, doxycycline (50 ng/mL) was added to each well, and cells were cultured at 37 °C for 12 h. Medium was changed to doxycycline-free medium containing each sample, then cells were incubated with at 37 °C for 12 h. A microplate luminometer (Thermo Fisher Scientific Inc., Waltham, USA) and the Bright-Glo™ Luciferase Assay System (Promega Co., Madison, USA) were used for measurement of Luciferase activity. Fluorometric Microculture Cytotoxicity Assay (FMCA) was used for measurement of cell viability of the sample-treated cells. After incubation of assay cells (2×10^4 cells per well) in a 96-well black plate at 37 °C for 24 h, samples addition was performed at the same time as the luciferase assay. The assay cells were cultures at 37 °C for 12 h. A fluorescence plate reader (Thermo Fisher Scientific Inc., Waltham, USA) was used for determination of cell viability by FMCA.
(In general: A reporter such as luciferase makes a cellular process visible.)

The nature of series [2]: Cytotoxicity test, FMCA. The format is cell-based, human. The note with it: human, HEK293 cells, FMCA, read-out: IC50 cytotoxicity 293. On the procedure:
(§1) The medium was exchanged to fresh medium with different concentrations of compound and cells were incubated for 72 h.

The subject of series [3] is HEK293 cells. Description: Cytotoxicity test, FMCA. The format is cell-based, human. The note with it: 72 h. On the procedure: as §1
In series [4] the test system is APH-1. The series can be described thus: Western blot in HPB-ALL cells. The format is cell-based, human. The note with it: 72 h. On the procedure: (§2) (A) Schematic representation of γ-secretase complex. γ-Secretase is composed of four membrane proteins: presenilin1 (PS1), nicastrin (NCT), anterior pharynx defective 1 (APH-1) and presenilin enhancer 2 (PEN-2). […] (E,F) Relative protein levels of nicastrin mature and immature analyzed by densitometry. […] P values were analyzed by Student’s t test.
(§3) Media also contained different concentrations of compound. Cells were incubated at 37 °C for 72 h (12 h, when treatment with MG132). After incubation, cells were centrifuged and collected, and then washed with 500 μL of PBS twice. To prepare cell lysate and confirm protein expression levels, the same method as described above was used.

Series [5] has as its system PEN-2. Description: Western blot in HPB-ALL cells. The format is cell-based, human. The settings on record: 72 h. On the procedure: as §2, §3
In general terms: Immunoblotting shows a protein as a band on a membrane.

Series [6] has as its system PS1. Description: Western blot in HPB-ALL cells. In kind it is cell-based, human. The note with it: 72 h. On the procedure:
as §2, §3

`COc1c(O)cc2oc3cc(O)c(CC=C(C)C)c(O)c3c(=O)c2c1C/C=C(\C)CCC=C(C)C` [Compound 2, cowanin]: the IC50 in series [1] is 2.4 µM. Moreover, the IC50 at 72 h in series [2] came to 15.1 µM. The “viability of normal human embryonic kidney 293 cells” value in series [3] (10 μM) is reported as “not affected”. In addition, the “cytotoxicity on 293 cells” value in series [3] (20 μM) is reported as “cytotoxicity was detected”. Besides, the “expression of APH-1” value in series [4] is “didn’t affect”. In addition, the “expression of PEN-2” value in series [5] is “didn’t affect”. For the same molecule, the “expression of PS1” value in series [6] was “didn’t affect”.
